For one test, the system named is B. subtilis ATCC 6633. Nature of the test: Microdilution MIC/MMC with resazurin. Particulars: for MIC: Bacillus subtilis, ATCC6633. Format: cell-based, Bacillus subtilis. Here is the method:
(§1) The antimicrobial activity was evaluated against 15 microorganisms. This included 11 bacterial strains: four standard strains (Staphylococcus aureus ATCC 25923, Bacillus subtilis ATCC 6633, Bacillus pumilus NCTC 8241, and Escherichia coli ATCC 25922) and six clinical or environmental isolates (Staphylococcus aureus, Escherichia coli, Bacillus cereus, Proteus mirabilis, Salmonella enterica, and Klebsiella pneumoniae). One probiotic strain, Bifidobacterium animalis subsp. lactis was tested. In addition, four fungal strains, Candida albicans ATCC 10231, Trichoderma viride ATCC 13233, Aspergillus flavus ATCC 9170, and Fusarium solani ATCC 11712 were tested. The bacterial strains were kept in glycerol stock at −80 °C and the fungal strains in paraffin oil stock at 4 °C.
(§2) Bacterial and yeast suspensions were prepared using the direct colony method, as previously described by Andrews. The turbidity of the initial suspensions was adjusted to match the 0.5 McFarland standard using a densitometer (Biosan, Riga, Latvia), corresponding to approximately 10^8 colony-forming units (CFU)/mL for bacterial cells and 10^6 CFU/mL for yeast cells. Subsequently, 1:100 dilutions of the initial suspensions were prepared in sterile 0.85% saline. Fungal spore suspensions were obtained by gently harvesting spores from agar slopes containing mature mycelial growth. The collected spore suspensions were then diluted 1:1000 in sterile 0.85% saline prior to use.
(§3) Antimicrobial activity was evaluated by determining the minimum inhibitory concentration (MIC) and minimum microbicidal concentration (MMC) using the microdilution plate method with resazurin as an indicator [28]. In the 96-well plates, 100 μL of Mueller–Hinton broth (Torlak, Belgrade, Serbia) for bacterial testing and Sabouraud broth (Torlak, Belgrade, Serbia) for fungal testing were dispensed into each well. The compounds under investigation were initially dissolved in a 10% dimethyl sulfoxide (DMSO) solution, followed by dilution in sterile distilled water, resulting in a working compound solution containing 1% DMSO. A 100 μL aliquot of the stock solution of the tested compound was added to the first row, and twofold serial dilutions were then carried out using a multichannel pipette. The resulting concentration range was from 5 to 0.039 mg/mL. The inoculated microtiter plates were incubated at 37 °C for 24 h for bacteria, at 28 °C for 48 h for yeasts, and at 28 °C for 72 h for molds.
(§4) Each test also included growth control and sterility control. All tests were conducted in duplicate. MIC was defined as the lowest concentration of tested compounds that prevented resazurin color change from blue to pink. For molds, MIC values of the tested compound were determined as the lowest concentration that inhibited visible mycelia growth. MMC was determined by inoculation of the nutrient agar medium by plating […] of samples from wells, where no indicator color change was recorded. At the end of the incubation period, the lowest concentration with no growth (no colony) was defined as MMC.
(§5) Doxycycline, ampicillin and amphotericin B (- Sigma-Aldrich, St. Louis, MO, USA) and ketoconazole (Hemofarm A.D., Vršac, Serbia) were dissolved in a nutrient liquid medium. Doxycycline is a broad-spectrum antibiotic effective against both aerobic and anaerobic Gram-positive and Gram-negative bacteria. Ampicillin, a beta-lactam antibiotic, primarily targets Gram-positive bacteria but also some Gram-negative strains. Amphotericin B is an antifungal drug often used for serious systemic fungal infections and is one of the effective treatments for fungal infections caused by Aspergillus sp. Ketoconazole is an antifungal agent used to inhibit the growth of Candida species.

The subject of another test is B. cereus. Description: Microdilution MIC/MMC with resazurin. Format: cell-based, Bacillus cereus. Particulars: for MIC: Bacillus cereus. Here is the method:
as §1, §2, §3, §4, §5
(Dilution methods test growth across graded concentrations, often in twofold steps.)

Test [1] deals with B. animalis subsp. lactis. Nature of the test: Microdilution MIC/MMC with resazurin. Format: cell-based, Bifidobacterium animalis subsp. lactis. Here is the method:
as §1, §2, §3, §4, §5

The test system of another test is E. coli ATCC 25922. Description: Microdilution MIC/MMC with resazurin. The format is cell-based, Escherichia coli. Particulars: for MIC: Escherichia coli, ATCC25922. The protocol:
as §1, §2, §3, §4, §5

A further test concerns E. coli. Description: Microdilution MIC/MMC with resazurin. Format: cell-based, Escherichia coli. Particulars: E. coli isolate, compounds 1–8. The protocol: as §1, §2, §3, §4, §5
For the next test, the system named is P. mirabilis. Description: Microdilution MIC/MMC with resazurin. Format: cell-based, Proteus mirabilis. Particulars: for MIC: Proteus mirabilis. The protocol:
as §1, §2, §3, §4, §5

Test [2] concerns the target T1, Type I-B soybean lipoxygenase (Glycine max, UniProt P08170).
T1 sequence (P08170 1-839): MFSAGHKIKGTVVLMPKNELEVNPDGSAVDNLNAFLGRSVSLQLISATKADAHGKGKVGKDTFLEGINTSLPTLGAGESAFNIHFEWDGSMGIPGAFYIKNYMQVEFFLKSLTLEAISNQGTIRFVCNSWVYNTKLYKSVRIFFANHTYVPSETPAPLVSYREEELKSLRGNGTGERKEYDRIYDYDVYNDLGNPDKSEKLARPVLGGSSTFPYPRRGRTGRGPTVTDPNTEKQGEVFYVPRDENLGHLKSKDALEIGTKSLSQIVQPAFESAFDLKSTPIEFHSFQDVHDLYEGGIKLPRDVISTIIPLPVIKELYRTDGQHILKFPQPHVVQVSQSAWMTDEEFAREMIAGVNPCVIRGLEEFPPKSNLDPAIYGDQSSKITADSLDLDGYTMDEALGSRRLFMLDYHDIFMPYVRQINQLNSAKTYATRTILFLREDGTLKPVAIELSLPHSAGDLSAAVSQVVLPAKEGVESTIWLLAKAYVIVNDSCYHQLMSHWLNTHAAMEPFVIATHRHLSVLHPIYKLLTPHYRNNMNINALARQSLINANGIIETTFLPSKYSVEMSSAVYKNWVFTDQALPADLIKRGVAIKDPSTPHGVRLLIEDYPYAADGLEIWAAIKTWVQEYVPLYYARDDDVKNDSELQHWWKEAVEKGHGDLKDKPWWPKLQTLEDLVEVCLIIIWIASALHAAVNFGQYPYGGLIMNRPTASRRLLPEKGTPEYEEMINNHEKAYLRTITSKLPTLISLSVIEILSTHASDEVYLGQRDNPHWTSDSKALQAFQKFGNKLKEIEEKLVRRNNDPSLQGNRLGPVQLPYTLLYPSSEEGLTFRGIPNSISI
Nature of the test: LOX inhibition assay. Particulars: read-out: Percentage of LOX Inhibition. The format is biochemical. Here is the method:
Type I-B soybean lipoxygenase is a commonly used enzyme for studying the anti-inflammatory properties of various compounds [19]. The lipoxygenase (LOX) inhibition assay measures the enzyme’s ability to convert sodium linoleate to 13-hydroperoxylinoleic acid. The inhibition of the enzyme by the investigated compounds was determined by measuring the absorbance at 234 nm for each prepared sample. Specifically, the test compound, Tris buffer, an enzyme solution (5 × 10^3 units/mL in saline), and sodium linoleate (3 mM in Tris buffer, pH 9), were added to a UV cuvette, and the absorbance was recorded. […] All measurements were performed in triplicate.

Where [3] appears, read: B. subtilis ATCC 6633, compounds 1–8.
The mark [4] stands for this setting: B. animalis subsp. lactis, compounds 1–8.
Setting [5] is: E. coli ATCC 25922, compounds 1–8.

≈ marks a conversion by molar mass, not a printed value. Read-outs that look alike come from different tables or passages of the source.

Take `O=C1NCC(c2ccccc2)O1` (stereo not shown) [Compound 7, 5-Phenyl-1,3-oxazolidin-2-one]: the MMC in the test on B. subtilis ATCC 6633 (setting [3]) is 5 mg/mL; in the test on B. cereus (B. cereus, compounds 1–8), 5 mg/mL; in test [1] (setting [4]) it was 5 mg/mL; with E. coli ATCC 25922 (setting [5]), 2.5 mg/mL; in the test with E. coli, 2.5 mg/mL; in the test on P. mirabilis (P. mirabilis, compounds 1–8), 2.5 mg/mL. The MIC with B. subtilis ATCC 6633 (B. subtilis ATCC 6633, compounds 1–8, read-out: MIC) was 5000 µg/mL (≈ 30600 µM); with B. cereus (B. cereus, compounds 1–8, read-out: MIC) it was 5000 µg/mL (≈ 30600 µM); in test [1] (Bifidobacterium animalis, B. animalis subsp. lactis, compounds 1–8, read-out: MIC) it was 2500 µg/mL (≈ 15300 µM); in the test with E. coli ATCC 25922 (E. coli ATCC 25922, compounds 1–8, read-out: MIC), 1250 µg/mL (≈ 7660 µM); in the test with E. coli (Escherichia coli, read-out: MIC) it was 1250 µg/mL (≈ 7660 µM); in the test on P. mirabilis (P. mirabilis, compounds 1–8, read-out: MIC), 2500 µg/mL (≈ 15300 µM). The inhibition at 100 µM in test [2] (100 µM, mean ± SD) amounted to 18.3 ± 0.3%.
Take `Oc1ccc(CCN=C=S)cc1` [Compound 8, 2-(4-hydroxyphenyl)ethyl isothiocyanate]: the MMC with B. subtilis ATCC 6633 (setting [3]) is reported as greater than 5 mg/mL; in the test with B. cereus (B. cereus, compounds 1–8) it was 1.25 mg/mL; in test [1] (setting [4]) it was 0.625 mg/mL; in the test on E. coli ATCC 25922 (setting [5]), 0.312 mg/mL; in the test with E. coli, 0.625 mg/mL; with P. mirabilis (P. mirabilis, compounds 1–8), 0.625 mg/mL. Also, the MIC is 312 µg/mL (≈ 1740 µM) in the test with B. subtilis ATCC 6633; 156 µg/mL (≈ 870 µM) in the test with B. cereus; less than 39 µg/mL in test [1] (setting [4]); less than 39 µg/mL in test [1] (Bifidobacterium animalis); 78 µg/mL (≈ 435 µM) against E. coli ATCC 25922; less than 39 µg/mL with E. coli. Also, the minimal inhibitory concentration (MIC) came to 39 µg/mL (≈ 218 µM) in the test on E. coli (Escherichia coli) and 156 µg/mL (≈ 870 µM) in the test with P. mirabilis. Besides, the inhibition at 100 µM in test [2] came to 21.2 ± 0.3%.

For orientation: MIC means the smallest concentration in the dilution series that meets the test's criterion for growth inhibition. One may read the inhibition as the change of the read-out against control, counted positive when it falls.

The record behind these values is article PMC12693701, “Glucosinolate-Derived Metabolites from Barbarea vulgaris (Brassicaceae): Evaluation of Antimicrobial, Antioxidant, and Anti-Inflammatory Potentials” (Molecules, 2025).
